According to patent US20100305068A1, “COMPOUNDS AND METHODS FOR MODULATING PROTEIN TRAFFICKING” (priority 2006, published 2010):

Tested on: pdr5 ypt1^ts cells
Test: microbe, parasite or virus in culture
Assay type: cell-based, yeast
Conditions: 37° C.; for minimal effective concentration: Saccharomyces cerevisiae, lowest concentration tested giving growth above the 0 μM background, read-out: ypt1-ts MRC (minimal rescue concentration); for minimal effective concentration / optical density, ypt1-ts, 0.39 / optical density, ypt1-ts, 0.78 / optical density, ypt1-ts, 1.56 / optical density, ypt1-ts, 3.13 / optical density, ypt1-ts, 6.25 / optical density, ypt1-ts, 12.5 / optical density, ypt1-ts, 25: Table 2; for optical density, ypt1-ts, 0.39: 0.39 μM compound; for optical density, ypt1-ts, 0.39 / optical density, ypt1-ts, 0.78 / optical density, ypt1-ts, 1.56 / optical density, ypt1-ts, 3.13 / optical density, ypt1-ts, 6.25 / optical density, ypt1-ts, 12.5 / optical density, ypt1-ts, 25: background (0 μM) 0.058; for optical density, ypt1-ts, 0.78: 0.78 μM compound; for optical density, ypt1-ts, 1.56: 1.56 μM compound; for optical density, ypt1-ts, 3.13: 3.13 μM compound; for optical density, ypt1-ts, 6.25: 6.25 μM compound; for optical density, ypt1-ts, 12.5: 12.5 μM compound; for optical density, ypt1-ts, 25: 25 μM compound; for optical density, 3.13 uM / optical density, 12.5 uM / optical density, 50 uM: Table 3, background (0 uM) 0.077; for optical density, 3.13 uM: 3.13 uM compound; for optical density, 12.5 uM: 12.5 uM compound; for optical density, 50 uM: 50 uM compound
In short: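 Whole-cell yeast growth-rescue screen: pdr5 ypt1^ts cells (efflux pump inactivated), growth-arrested at 37° C., cultured with compounds at 37° C. Restoration of growth read by optical density.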

SMILES	minimal effective concentration [µM]	optical density, ypt1-ts, 0.39	optical density, ypt1-ts, 0.78	optical density, ypt1-ts, 1.56	optical density, ypt1-ts, 3.13	optical density, ypt1-ts, 6.25	optical density, ypt1-ts, 12.5	optical density, ypt1-ts, 25	optical density, 3.13 uM	optical density, 12.5 uM	optical density, 50 uM
Oc1ccc2c(c1)OCC1c3cc4c(cc3OC21)OCO4 (stereo not drawn) [MAACKIAIN]	25	0.084	0.073	0.076	0.103	0.09	0.104	0.209	–	–	–
CC(=O)[C@H]1CCC2C3C[C@H](C)C4=CC(=O)CC[C@]4(C)C3[C@@H](O)C[C@@]21C (stereo partly drawn) [MEDRY- SONE, reference compound]	–	–	–	–	–	–	–	–	0.114	0.165	0.266
CC(=O)O[C@]1(C(C)=O)CC[C@H]2[C@@H]3C=C(C)C4=CC(=O)CC[C@]4(C)[C@H]3CC[C@@]21C [MEGESTROL ACETATE, reference compound]	–	–	–	–	–	–	–	–	0.222	0.341	0.202
COc1c2occc2cc2ccc(=O)oc12 [METHOX- SALEN, reference compound]	–	–	–	–	–	–	–	–	0.124	0.25	0.38
COc1cc(C)c2c(=O)cc(-c3ccccc3)oc2c1 [METHOXYVONE]	12.5	0.095	0.09	0.09	0.105	0.114	0.142	0.258	–	–	–
CCOC(=O)c1c(C)cc(O)c(C)c1O [METHYL[…], ETHYL ESTER]	25	0.082	0.073	0.072	0.084	0.097	0.119	0.259	–	–	–
CCN(CC)CCNC(=O)c1cc(Cl)c(N)cc1OC.Cl [METO- […]- CHLORIDE, reference compound]	–	–	–	–	–	–	–	–	0.099	0.158	0.555
COC(=O)C[C@H]1C(C)(C)C(=O)[C@@H]2CC3=C4CC(=O)O[C@@H](c5ccoc5)[C@]4(C)CCC3[C@]1(C)C2=O (stereo partly drawn) [MEXICANOLIDE]	6.25	0.092	0.069	0.076	0.105	0.216	0.377	0.573	–	–	–
O=C1c2c(O)ccc(O)c2C(=O)c2c(NCCNCCO)ccc(NCCNCCO)c21 [MITO- XANTHRONE HYDRO- CHLORIDE, reference compound]	–	–	–	–	–	–	–	–	0.149	0.132	0.313
CCOC(=O)C1=C(C)NC(C)=C(C(=O)OC)C1c1cccc([N+](=O)[O-])c1 (stereo not drawn) [NITRENDIPINE, reference compound]	3.13	0.11	0.089	0.103	0.143	0.309	0.403	0.481	–	–	–
COc1ccc(CC(=O)c2ccc(O)cc2O)cc1 [ONONETIN]	6.25	0.097	0.08	0.096	0.111	0.14	0.3	0.618	–	–	–
Clc1ccc(Cl)cc1 [PARA- DICHLORO- BENZENE]	–	–	–	–	–	–	–	–	0.169	0.28	0.202
COc1c(C(C)C)oc2cc3oc(=O)ccc3cc12 [PEUCEDANIN]	–	–	–	–	–	–	–	–	0.138	0.25	0.461
CCCCC1C(=O)N(c2ccccc2)N(c2ccccc2)C1=O [PHENYLBUTAZONE, reference compound]	6.25	0.1	0.084	0.094	0.11	–	0.227	0.452	–	–	–
O=C(/C=C/C=C/c1ccc2c(c1)OCO2)N1CCCCC1 [PIPERINE]	–	–	–	–	–	–	–	–	0.107	0.135	0.377
CC(C)=CCOc1cc2oc(=O)ccc2cc1O [PRENYLETIN]	25	0.087	0.072	0.07	0.087	0.09	0.121	0.292	–	–	–
COC(=O)[C@]1(C)CC[C@]2(C)CC[C@]3(C)C4=CC=C5C(=CC(=O)C(O)=C5C)[C@]4(C)CC[C@@]3(C)[C@@H]2C1 [PRISTIMERIN]	–	0.534	0.332	0.669	0.703	0.68	0.676	0.677	–	–	–
COC(=O)[C@]1(C)CC[C@]2(C)CC[C@]3(C)C4=CCc5c(cc(O)c(O)c5C)[C@]4(C)CC[C@@]3(C)[C@@H]2C1 [PRISTIMEROL]	6.25	0.11	0.079	0.101	0.114	0.168	0.362	0.591	–	–	–
CC(=O)[C@H]1CC[C@H]2[C@@H]3CCC4=CC(=O)CC[C@]4(C)[C@H]3CC[C@]12C [PROGESTERONE, reference compound]	12.5	0.089	0.083	0.091	0.098	0.12	0.15	0.316	–	–	–
CC(C)N(C(=O)CCl)c1ccccc1 [PROPACHLOR]	6.25	0.101	0.085	0.098	0.121	0.141	0.177	0.184	–	–	–
CCC(=O)Nc1ccc(Cl)c(Cl)c1 [PROPANIL]	12.5	0.084	0.072	0.076	0.097	0.108	0.217	0.564	–	–	–
CNC(=O)Oc1ccccc1OC(C)C [PROPOXUR]	–	–	–	–	–	–	–	–	0.194	0.289	0.231
